Patent US6399766B2, “4-halogenated steroids, their preparation process and intermediates, their use as medicaments and the pharmaceutical compositions containing them” (Aventis Pharma S.A., priority 1997, dated 2002)

Assays:
[1] = tested on: MCF-7 human mammary cells; assay: Effect on the proliferation of mammary cells; format: cell-based; parameters: key: Mixed: slight agonist activity at very low concentrations and an inhibitory activity at higher concentrations; settings: 7 days culture, steroid-free medium, DNA determination; oestradiol at 10^−10M = 100% agonist activity
Source text: PHARMACOLOGICAL TESTS Effect on the proliferation of mammary cells The proliferative activity of the molecules is studied in comparison to that of oestradiol on MCF-7 human mammary cells in culture. In order to reveal an agonist effect of the oestradiol and/or the tested molecules, the cell maintenance culture (rich in growth factors and steroids) is replaced by an impoverished medium, amongst others free of steroids (DMEM supplemented with 5% of steroid-free serum and without phenol red). Cells undergo this severance two days before the start of the test. After 7 days culture in the presence of the products to be studied, the cell proliferation is evaluated by determination of the DNA. In each test, the effect of the oestradiol at 10^−10M (cell growth in the presence of oestradiol less cell growth in the presence of the solvent) determines the 100% agonist activity. The activity of the molecules is evaluated in comparison to this internal control.

[2] = tested on: ovariectomized female rat; assay: Bone impact study in the ovariectomized female rat at the age of 3 months (tibia BMD, uterus weight, seric cholesterol); format: in vivo; settings: OVX rat, 4 weeks; for TIBIA BONE BMD %: (product BMD - OVX BMD)x100/(SHAM BMD - OVX BMD); for UTERUS Weight %: increase in % of uterus weight of OVX animals receiving only solvent; for Cholesterol %: seric cholesterol, % relative to OVX animals receiving only solvent
Procedure: Bone impact study of a product in the ovariectomized female rat at the age of 3 months Compounds A, B, C, D, E are tested in order to determine their effect on the bone mass and on the formation and resorption activity in the model of the ovariectomized rat at the age of 3 months. […] The study is carried out with female rats ovariectomized at the age of 3 months. The animals are kept in an air conditioned room (temperature 20° C.±2° C.) and grouped by 4 into boxes. The animals receive, ad libitum, demineralized water and compressed foods (pellets: AO4CR-10 UAR). The 3 month old female rats weighing approximately 250 g are ovariectomized under anaesthesia with Imalgene 1000, at a dose of 100 mg/kg by intraperitoneal route (i.p.) and under a volume of 1 ml/kg. They also receive Nembutal (3 mg/kg i.p. under a volume of 0.3 ml/kg). After lateral incision, cutaneous and muscular planes are sectioned. The exeresis of each ovary is carried out after ligature of the oviduct. The “SHAM” control rats are anaesthetised under the same conditions. After incision of the cutaneous and muscular planes, each ovary is exposed then replaced in situ. The effects of the products are determined in a preventive treatment. They are administered immediately after the ovariectomy. Animals distributed into groups of 8. Group 1: “SHAM” control rats receiving the vehicle or vehicles Group 2: “OVX” control rats receiving the vehicle or vehicles. Groups X: “OVX” rats receiving respectively defined doses of the product or products to be tested. At the end of 4 weeks (duration of the study) the animals are decapitated by guillotine. The serums collected after centrifugation are preserved at −20° C. A lipidic balance will be established from the serous determinations of total cholesterol, of triglycerides and of phospholipids on a 500 μl aliquot of serum. The lowering of the seric cholesterol level is expressed in % relative to the level shown by the ovariectomized animals receiving only the solvent. The uteri are removed. The latter are weighed. The increase in weight is expressed in % of the weight of the uterus of ovariectomized animals receiving only the solvent. The bone mass (BMD or Bone mineral density) is measured by biphotonic dual energy X-ray absorptiometry (DEXA). The measurements are carried out on bone excized and cleaned of all soft tissue. The BMD (Bone mineral density) is measured on the whole bone as well as on the metaphyseal part at the level of the proximal extremity for the left tibia. This zone is defined as being the region which is richest in trabecular bone; and consequently, is the most sensitive to variations in bone volume and bone mineral density. The results are expressed in % according to the formula: Tested product BMD - OVX BMD ×100/SHAM BMD - OVX BMD

| SMILES | ACTIVITY (proliferative activity on MCF-7 cells) [1] | TIBIA BONE BMD % ([2]; 0.3 mg/kg po) [%] | UTERUS Weight % ([2]; 0.3 mg/kg po) [%] | Cholesterol % ([2]; 0.3 mg/kg po) [%] | TIBIA BONE BMD % ([2]; 1.0 mg/kg po) [%] | UTERUS Weight % ([2]; 1.0 mg/kg po) [%] | Cholesterol % ([2]; 1.0 mg/kg po) [%] | TIBIA BONE BMD % ([2]; 0.1 mg/kg s.c.) [%] | UTERUS Weight % ([2]; 0.1 mg/kg s.c.) [%] | Cholesterol % ([2]; 0.1 mg/kg s.c.) [%] |
| --- | --- | --- | --- | --- | --- | --- | --- | --- | --- | --- |
| C[C@]12C[C@H](c3ccc(OCCN4CCCCC4)cc3)[C@@H]3c4ccc(O)c(Cl)c4CC[C@H]3[C@@H]1CCC2=O [Example 1, 4-chloro-3-hydroxy-11beta-[4-[2-(1-piperidinyl)ethoxy]phenyl]-estra-1,3,5 (10)-trien-17-one] | Mixed | 57 | 55 | −50 | 64 | 55 | −48 |  |  |  |
| CCN(CC)CCOc1ccc([C@H]2C[C@]3(C)[C@@H](O)CC[C@H]3[C@@H]3CCc4c(ccc(O)c4Cl)[C@H]32)cc1 [Example 20, 4-chloro-11beta-[4-[2-(diethylamino)ethoxy]phenyl]-estra-1,3,5 (10)-triene-3,17beta-diol] | Mixed* | 69 | 60 | −43 | 74 | 50 | −40 |  |  |  |
| C[C@]12C[C@H](c3ccc(OCCN4CCCCC4)cc3)[C@@H]3c4ccc(O)c(Cl)c4CC[C@H]3[C@@H]1CC[C@@H]2O [Example 22, 4-chloro-11β-[4-[2-(1-piperidinyl)ethoxy]phenyl]-estra-1,3,5(10)-triene-3,17beta-diol] | Inactive | 63 | 57 | −52 |  |  |  |  |  |  |
| C[C@]12C[C@H](c3ccc(OCCN4CCCC4)cc3)[C@@H]3c4ccc(O)c(Cl)c4CC[C@H]3[C@@H]1CC[C@@H]2O [Example 23, 4-chloro-11β-[4-[2-(1-pyrrolidinyl)ethoxy]phenyl]-estra-1,3,5(10)-triene-3,17beta-diol] | Mixed | 67 | 64 | −53 | 71 | 74 | −53 |  |  |  |
| CC1(O)CCC2C3CCc4c(ccc(O)c4Cl)C3C(c3ccc(OCCN4CCCCC4)cc3)CC21C (stereo not drawn) [Example 30, 4-chloro-17alpha-methyl-11β-[4-[2-(1-piperidinyl)ethoxy]phenyl]-estra-1,3,5(10)-triene-3,17beta-diol.] | Mixed | 52 | 68 | −51 | 71 | 55 | −48 |  |  |  |
| C[C@]12CC[C@@H]3c4ccc(O)cc4CC[C@H]3[C@@H]1CC[C@@H]2O [Oestradiol, 17β oestradiol, reference compound] | Agonist |  |  |  |  |  |  | 105 | 359 | −35 |
